Measured values taken from ChEMBL document CHEMBL4619756, “Design, synthesis and biological evaluation of N-hydroxy-aminobenzyloxyarylamide analogues as novel selective κ opioid receptor antagonists” (Bioorg Med Chem Lett, 2020).

What was measured:
[1] = biological target: T1, Mu-type opioid receptor (Homo sapiens, UniProt P35372); test: Displacement of [3H]-DAMGO from human mu opiod receptor expressed in CHO cells at 10 uM incubated for 60 mins by liquid scintillation counting method relative to control; assay type: cell-based
[2] = biological target: T1, Mu-type opioid receptor; test: Displacement of [3H]-DAMGO from human mu opiod receptor expressed in CHO cells at 1 uM incubated for 60 mins by liquid scintillation counting method relative to control; assay type: cell-based
[3] = biological target: T2, Kappa-type opioid receptor (Homo sapiens, UniProt P41145); test: Displacement of [3H]-U69593 from human kappa opiod receptor expressed in CHO cells at 10 uM incubated for 60 mins by liquid scintillation counting method relative to control; assay type: cell-based
[4] = biological target: T2, Kappa-type opioid receptor; test: Displacement of [3H]-U69593 from human kappa opiod receptor expressed in CHO cells at 1 uM incubated for 60 mins by liquid scintillation counting method relative to control; assay type: cell-based
[5] = biological target: T3, Delta-type opioid receptor (Homo sapiens, UniProt P41143); test: Displacement of [3H]-DPDPE from human delta opiod receptor expressed in human HEK293 cells at 10 uM incubated for 60 mins by liquid scintillation counting method relative to control; assay type: cell-based
[6] = biological target: T3, Delta-type opioid receptor; test: Displacement of [3H]-DPDPE from human delta opiod receptor expressed in human HEK293 cells at 1 uM incubated for 60 mins by liquid scintillation counting method relative to control; assay type: cell-based
[7] = biological target: T1, Mu-type opioid receptor; test: Displacement of [3H]-DAMGO from human mu opiod receptor expressed in CHO cells incubated for 60 mins by liquid scintillation counting method; assay type: cell-based
[8] = biological target: T2, Kappa-type opioid receptor; test: Displacement of [3H]-U69593 from human kappa opiod receptor expressed in CHO cells incubated for 60 mins by liquid scintillation counting method; assay type: cell-based
[9] = biological target: T3, Delta-type opioid receptor; test: Displacement of [3H]-DPDPE from human delta opiod receptor expressed in human HEK293 cells incubated for 60 mins by liquid scintillation counting method; assay type: cell-based
[10] = species on record: Homo sapiens; test: Selectivity index, ratio of Ki for human mu opiod receptor expressed in CHO cells to Ki for human kappa opiod receptor expressed in CHO cells; assay type: cell-based
[11] = species on record: Homo sapiens; test: Selectivity index, ratio of Ki for human delta opiod receptor expressed […] for human kappa opiod receptor expressed in CHO cells; assay type: cell-based
[12] = biological target: T1, Mu-type opioid receptor; test: Antagonist activity at human mu opiod receptor expressed in CHO cells assessed as inhibition of DAMGO-induced [35S]GTPgammaS binding incubated for 4 hrs by microbeta liquid scintillation counting method; assay type: functional, cell-based
[13] = biological target: T2, Kappa-type opioid receptor; test: Antagonist activity at human kappa opiod receptor expressed in CHO cells assessed as inhibition of U69593-induced [35S]GTPgammaS binding incubated for 4 hrs by microbeta liquid scintillation counting method; assay type: functional, cell-based
[14] = biological target: T3, Delta-type opioid receptor; test: Antagonist activity at human delta opiod receptor expressed in human HEK293 cells assessed as inhibition of DPDPE-induced [35S]GTPgammaS binding incubated for 2 hrs by microbeta liquid scintillation counting method; assay type: functional, cell-based
[15] = species on record: Homo sapiens; test: Selectivity index, ratio of IC50 for human mu opiod receptor expressed in CHO cells to IC50 for human kappa opiod receptor expressed in CHO cells; assay type: cell-based
[16] = species on record: Homo sapiens; test: Selectivity index, ratio of IC50 for human delta opiod receptor expressed in HEK293 cells to IC50 for human kappa opiod receptor expressed in CHO cells

T1 sequence (P35372 whole entry): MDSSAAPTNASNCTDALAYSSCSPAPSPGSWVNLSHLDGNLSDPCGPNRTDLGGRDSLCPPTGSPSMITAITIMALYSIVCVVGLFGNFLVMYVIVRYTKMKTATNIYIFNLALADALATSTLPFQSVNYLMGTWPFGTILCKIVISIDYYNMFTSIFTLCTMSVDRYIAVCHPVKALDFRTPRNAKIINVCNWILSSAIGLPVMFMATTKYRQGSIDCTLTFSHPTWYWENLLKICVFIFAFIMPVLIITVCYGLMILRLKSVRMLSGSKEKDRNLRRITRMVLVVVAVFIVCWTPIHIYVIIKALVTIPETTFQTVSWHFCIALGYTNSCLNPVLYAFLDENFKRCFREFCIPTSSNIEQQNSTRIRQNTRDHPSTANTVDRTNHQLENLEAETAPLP
T3 sequence (P41143 whole entry): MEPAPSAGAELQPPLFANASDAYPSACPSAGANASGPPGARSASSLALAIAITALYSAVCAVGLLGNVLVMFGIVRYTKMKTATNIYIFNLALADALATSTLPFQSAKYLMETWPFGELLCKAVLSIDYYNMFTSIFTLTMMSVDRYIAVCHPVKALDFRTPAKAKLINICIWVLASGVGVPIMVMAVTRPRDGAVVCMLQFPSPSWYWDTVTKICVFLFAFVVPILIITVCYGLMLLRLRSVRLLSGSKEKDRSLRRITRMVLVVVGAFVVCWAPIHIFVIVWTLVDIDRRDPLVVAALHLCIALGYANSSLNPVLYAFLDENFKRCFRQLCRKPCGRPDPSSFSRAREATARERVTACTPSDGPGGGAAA
T2 sequence (P41145 whole entry): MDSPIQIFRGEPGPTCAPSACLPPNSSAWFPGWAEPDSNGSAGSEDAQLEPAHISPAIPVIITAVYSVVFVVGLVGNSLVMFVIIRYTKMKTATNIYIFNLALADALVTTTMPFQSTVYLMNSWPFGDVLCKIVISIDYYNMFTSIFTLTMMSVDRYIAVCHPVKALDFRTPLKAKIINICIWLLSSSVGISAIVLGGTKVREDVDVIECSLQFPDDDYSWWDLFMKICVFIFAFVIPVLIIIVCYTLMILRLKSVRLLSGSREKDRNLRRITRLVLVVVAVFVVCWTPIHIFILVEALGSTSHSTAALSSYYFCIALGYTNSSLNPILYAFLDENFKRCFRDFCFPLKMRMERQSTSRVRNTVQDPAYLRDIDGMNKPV

inhibition [1] [%] | inhibition [2] [%] | inhibition [3] [%] | inhibition [4] [%] | inhibition [5] [%] | inhibition [6] [%] | Ki [7] [nM] | Ki [8] [nM] | Ki [9] [nM] | IC50 [12] [nM] | IC50 [13] [nM] | IC50 [14] [nM] | SMILES | Ratio Ki [10] | Ratio Ki [11] | Ratio IC50 [15] | Ratio IC50 [16]
64.4 | 22.6 | 80.4 | 42.5 |  |  |  |  |  |  |  |  | COc1cccc(C2CCCN2Cc2ccc(Oc3ccc(C(=O)NO)cc3F)cc2)c1 (stereo not given) |  |  |  | 
41 | 19.2 | 19.1 | 0 | 49.7 | 23.7 |  |  |  |  |  |  | COc1ccc(C2CCCN2Cc2ccc(Oc3ccc4c(=O)[nH]oc4c3F)cc2)cc1 (stereo not given) |  |  |  | 
0 | 0 | 57.2 | 20 | 38.2 | 0 |  |  |  |  |  |  | O=c1[nH]oc2c(F)c(Oc3ccc(CN4CCCC4c4cccc(Cl)c4)cc3)ccc12 (stereo not given) |  |  |  | 
9.5 | 0 | 85.2 | 37.2 | 10.7 | 0 |  |  |  |  |  |  | Cc1cc(C)cc(C2CCCN2Cc2ccc(Oc3ccc4c(=O)[nH]oc4c3)c(F)c2)c1 (stereo not given) |  |  |  | 
45.9 | 21.9 | 85.3 | 51.6 | 13.8 | 0 |  |  |  |  |  |  | O=C(NO)c1ccc(Oc2ccc(CN3CCCC3c3ccccc3)cc2)cc1 (stereo not given) |  |  |  | 
0 | 0 | 0 | 0 | 60.6 | 19.7 |  |  |  |  |  |  | COc1cccc(C2CCCN2Cc2ccc(Oc3ccc4c(=O)[nH]oc4c3Cl)cc2)c1 (stereo not given) |  |  |  | 
41.1 | 21.7 | 0 | 0 | 52.2 | 23.9 |  |  |  |  |  |  | O=c1[nH]oc2c(Cl)c(Oc3ccc(CN4CCCC4c4ccc(Cl)cc4)cc3)ccc12 (stereo not given) |  |  |  | 
54.5 | 47 | 83.5 | 57.6 | 35.9 | 15.7 |  |  |  |  |  |  | O=c1[nH]oc2cc(Oc3ccc(CN4CCCC4c4ccc(Cl)cc4)cc3)ccc12 (stereo not given) |  |  |  | 
59.2 | 14.3 | 73.2 | 38.4 | 49.1 | 11.6 |  |  |  |  |  |  | COc1cc(CN2CCCC2c2cc(C)cc(C)c2)ccc1Oc1ccc2c(=O)[nH]oc2c1 (stereo not given) |  |  |  | 
0 | 0 | 11.6 | 0 | 22.3 | 0 |  |  |  |  |  |  | Cc1cc(C)cc(C2CCCN2Cc2ccc(Oc3ccc4c(=O)[nH]oc4c3Cl)cc2)c1 (stereo not given) |  |  |  | 
9.8 | 0 | 69.8 | 23.8 | 16.9 | 0 |  |  |  |  |  |  | Cc1cc(C)cc(C2CCCN2Cc2ccc(Oc3ccc4c(=O)[nH]oc4c3)c(Cl)c2)c1 (stereo not given) |  |  |  | 
0 | 0 | 16.2 | 0 | 37.9 | 8.5 |  |  |  |  |  |  | O=c1[nH]oc2c(Cl)c(Oc3ccc(CN4CCCC4c4cccc(F)c4)cc3)ccc12 (stereo not given) |  |  |  | 
40.4 | 12.8 | 86 | 52.3 | 24.4 | 3.9 | 2310 | 180 | > 10000 | 202 | 178 | > 5000 | COc1ccc(C2CCCN2Cc2ccc(Oc3ccc(C(=O)NO)cc3)cc2)cc1 (stereo not given) | 12.8 | > 55.5 | 1.1 | > 28
43.1 | 11 | 77.4 | 34.9 | 15.8 | 6.2 |  |  |  |  |  |  | COc1ccc(C2CCCN2Cc2ccc(Oc3ccc(C(=O)NO)cc3F)cc2)cc1 (stereo not given) |  |  |  | 
37.3 | 9.4 | 56.9 | 26.7 | 49.3 | 17.2 |  |  |  |  |  |  | Cc1cc(C)cc(C2CCCN2Cc2ccc(Oc3ccc4c(=O)[nH]oc4c3F)c(F)c2)c1 (stereo not given) |  |  |  | 
50.6 | 42.2 | 66.9 | 55.7 | 40.7 | 33.3 |  |  |  |  |  |  | COc1ccc(C2CCCN2Cc2ccc(Oc3ccc4c(=O)[nH]oc4c3)cc2)cc1 (stereo not given) |  |  |  | 
31.6 | 13.5 | 84.3 | 33.8 | 7.1 | 0 |  |  |  |  |  |  | COc1cccc(C2CCCN2Cc2ccc(Oc3ccc(C(=O)NO)cc3)cc2)c1 (stereo not given) |  |  |  | 
6.2 | 0 | 29 | 9.7 | 28.4 | 0 |  |  |  |  |  |  | COc1cccc(C2CCCN2Cc2ccc(Oc3ccc4c(=O)[nH]oc4c3F)cc2)c1 (stereo not given) |  |  |  | 
32.2 | 17.7 | 39.9 | 18.8 | 39.3 | 18 |  |  |  |  |  |  | COc1ccc(C2CCCN2Cc2ccc(Oc3ccc4c(=O)[nH]oc4c3Cl)cc2)cc1 (stereo not given) |  |  |  | 
25.8 | 0 | 74.3 | 46.1 | 34.4 | 25.6 |  |  |  |  |  |  | O=C(NO)c1ccc(Oc2ccc(CN3CCCC3c3ccc(Cl)cc3)cc2)c(F)c1 (stereo not given) |  |  |  | 
57.3 | 16.5 | 54.7 | 30.9 | 26.4 | 0 |  |  |  |  |  |  | O=C(NO)c1ccc(Oc2ccc(CN3CCCC3c3cccc(Cl)c3)cc2)c(F)c1 (stereo not given) |  |  |  | 
32.5 | 19.2 | 45.4 | 0 | 44.9 | 0 |  |  |  |  |  |  | O=c1[nH]oc2c(Cl)c(Oc3ccc(CN4CCCC4c4cccc(Cl)c4)cc3)ccc12 (stereo not given) |  |  |  | 
36 | 10.7 | 84.7 | 39.5 | 6.5 | 0 |  |  |  |  |  |  | Cc1cc(C)cc(C2CCCN2Cc2ccc(Oc3ccc(C(=O)NO)cc3)cc2)c1 (stereo not given) |  |  |  | 
45.7 | 21.4 | 47.4 | 20.1 | 32.9 | 18 |  |  |  |  |  |  | Cc1cc(C)cc(C2CCCN2Cc2ccc(Oc3ccc4c(=O)[nH]oc4c3F)c(Cl)c2)c1 (stereo not given) |  |  |  | 
74 | 49.4 | 91.6 | 70.6 | 54.8 | 33.9 | 1480 | 1410 | 5010 |  |  |  | Cc1cc(C)cc(C2CCCN2Cc2ccc(Oc3ccc4c(=O)[nH]oc4c3)cc2)c1 (stereo not given) | 1 | 3.5 |  | 
0 | 0 | 24.8 | 0 | 52.5 | 20.7 |  |  |  |  |  |  | O=c1[nH]oc2c(F)c(Oc3ccc(CN4CCCC4c4cccc(F)c4)cc3)ccc12 (stereo not given) |  |  |  | 
73.2 | 25.8 | 80.6 | 45.8 | 28.4 | 16.8 | 2800 | 498 | > 10000 |  |  |  | O=C(NO)c1ccc(Oc2ccc(CN3CCCC3c3cccc(F)c3)cc2)c(F)c1 (stereo not given) | 4.6 | > 20 |  | 
35.8 | 22.5 | 39.2 | 0 | 9.6 | 0 |  |  |  |  |  |  | O=c1[nH]oc2c(F)c(Oc3ccc(CN4CCCC4c4ccc(Cl)cc4)cc3)ccc12 (stereo not given) |  |  |  | 
21.1 | 0 | 36.4 | 0 | 33.3 | 0 |  |  |  |  |  |  | Cc1cc(C)cc(C2CCCN2Cc2ccc(Oc3ccc4c(=O)[nH]oc4c3F)cc2)c1 (stereo not given) |  |  |  | 
87.2 | 52.7 |  |  |  | 49.5 | 93.7 | 14 | 105 | 29.4 | 7.7 | 109 | Cc1cc(C)cc(C2CCCN2Cc2ccc(Oc3ccc(C(N)=O)cc3F)cc2)c1 (racemic) | 6.7 | 7.5 | 3.8 | 14.1
